Values joined by “and” are separate entries in the source; they are usually repeats but may differ in a detail not shown here. Equal entries are not always repeated. Where two headings read alike, the source gives them in different places. Positions of bridges follow the written chain, without caps; N, C: chain ends. Residues, ends and D or L forms follow the SMILES beside them.
Experiments:
NaV1.8 = format: cell-based, mouse
[1] = system: NaV1.7Advill knockout mice; test: Nocifensive behaviors after intraplantar injection, NaV1.7Advill mice; format: in vivo, mouse; conditions: i.pl. ExTxA 10 nM
Text: Tmem233^Cre animals were generated and genotyped as previously described, with a Kozak-Cre-pA cassette replacing the ATG start codon of the murine Tmem233 gene to produce a functional knockout in homozygous animals. NaV1.7^Advill mice lacking functional NaV1.7 in all sensory neurons were generated and genotyped as previously described[33] by crossing Advillin-Cre mice with floxed Scn9a animals in which loxP sites were inserted in introns flanking exons 14 and 15[34],[35]. NaV1.9^−/− mice and NaV1.8^Cre/Cre mice, in which Cre recombinase substitutes the translational start-site of NaV1.8, were generated and sequenced as previously described[34],[36],[37].
Nocifensive responses to intraplantar administration of ExTxA (5–10 nM) were assessed as previously described. In brief, ExTxA was diluted in sterile saline/0.1% BSA and administered by an intraplantar injection (40 μL) into a single hind paw of Tmem233^Cre/Cre, NaV1.7^Advill and wild-type littermate controls. Pain behaviors, consisting of paw licks or flinches, were counted from video recordings by a blinded investigator for up to 60 min following injection.

hNaV1.2 = test: Persistent current, HEK293-hNaV1.2/β1; format: cell-based, human; conditions: ExTxA 1 µM; individual cells
hNaV1.4 = test: Persistent current, HEK293-hNaV1.4/β1; format: cell-based, human; conditions: ExTxA 1 µM
[2] = system: NaV currents in F11 cells; test: Persistent current, F11 cells; format: cell-based; conditions: ExTxA 1 µM; individual cells
[3] = system: NaV currents in SH-SY5Y cells; test: Persistent current, SH-SY5Y cells; format: cell-based, human; conditions: ExTxA 1 µM
hNaV1.7/β1 = test: Persistent current, CHO hNaV1.7/β1; format: cell-based, human; conditions: ExTxA 1 µM, mean, n = 11
[4] = NMR of 15N-labelled ExTxA with dodecylphosphocholine micelles; format: binding; conditions: 1H-15N TROSY, 30 µM peptide, 20 mM Tris pH 8, 50 mM NaCl, 10% DPC, 298 K
Protocol: For NMR analysis, lyophilized ^15N-labelled ExTxA was resuspended either in 40% deuterated acetonitrile or buffer containing 20 mM Tris pH 8, 50 mM NaCl, 10% (w/v) dodecylphosphocholine (DPC) and 5% D2O. ^1H-^15N transverse relaxation optimized spectroscopy (TROSY) spectra were acquired for the peptide samples (30 µM) on a Bruker Avance 900 MHz NMR spectrometer equipped with a triple resonance cryogenic probe at 298 K. The spectra were processed using TOPSPIN v4.1.4 software (Bruker, Massachusetts, USA).

NaV1.7/TMEM233 [5] = target: T1, NaV1.7/TMEM233 (Homo sapiens, UniProt B4DJY2+Q15858); format: cell-based
Protocol: Current-voltage (IV) curves were determined in HEK-NaV1.7 cells, in the absence and presence of TMEM233, from a series of step pulses (500 ms) ranging from −110 to +55 mV (5 mV increments, repetition interval 5 s) before and after incubation with ExTxA (1 μM) from a holding potential of −90 mV. Currents were converted to conductance (G) using G = I/(V − Vrev), with Vrev being the reversal potential, plotted against voltage and fitted with a Boltzmann equation to obtain GV (conductance-voltage) curves. Voltage dependence of steady-state fast inactivation was determined by a subsequent 10 ms pulse to −20 mV immediately following the 500 ms depolarization step detailed above to assess the available non-inactivated channels.

NaV1.7/TMEM233 [6] = target: T1, NaV1.7/TMEM233; test: Ramp currents with ExTxA, HEK293 NaV1.7/TMEM233; format: cell-based
hNaV1.7/TMEM233 [7] = test: Persistent current, CHO hNaV1.7/TMEM233; format: cell-based, human; conditions: ExTxA 1 µM; hNaV1.7/TMEM233; mean ± SEM, n = 16
hNaV1.7/TMEM233 [8] = test: Persistent current, Xenopus oocytes hNaV1.7/TMEM233; format: cell-based, human
Protocol: Human NaV1.7 and TMEM233 genes cloned into pcDNA3.1 plasmid were linearized with NotI restriction enzyme and used as template for cRNA synthesis using T7 polymerase (mMessage mMachine Kit; Life Technologies). Stage V/VI oocytes were injected with 5–20 ng total RNA, then incubated at 17 °C for 1–3 days in 50% Leibovitz’s L-15 medium (Gibco), supplemented with 25 µg/mL gentamicin, 25 µg/mL streptomycin, and 2.5% fetal horse serum. Two-electrode voltage clamp (Axoclamp 900 A amplifier; Axon Instruments) were performed at room temperature in ND96 solution (in mM: 96 NaCl, 2 KCl, 1 MgCl2, 1.8 CaCl2, 5 HEPES; pH 7.4 with NaOH) with a ∼40 μL recording chamber. In experiments where ExTxA was added, solutions were supplemented with 0.05% fatty-acid free bovine serum albumin. Borosilicate glass microelectrodes had resistances of 0.2–0.8 MΩ when backfilled with 3 M KCl. Data were digitized at 20 kHz and filtered at 2 kHz using pCLAMP 11 software (Digidata 1550B; Axon Instruments).
ExTxA activity was assayed at 1 µM, analyzing the current from a 50 ms step to −10 mV every 10 s, from a holding volage of −80 mV. For all other voltage protocols, oocytes were held at −90 mV. Activation curves were obtained by measuring peak currents during steps from −100 mV to +60 mV in +10 mV increments applied every 10 s, with G/Gmax plot between −80 mV and +10 mV. Steady-state inactivation curves plot the peak current at a test pulse of −10 mV, after a 200 ms pre-pulse from −100 mV to +40 mV in +10 mV increments applied every 10 s. Slow inactivation curves plot the peak current at a test pulse of −10 mV, after a 10 s pre-pulse from −110 mV to −10 mV in +10 mV increments applied every 20 s. To determine recovery from inactivation, oocytes were first stepped to −10 mV, then rested at −90 mV for a variable time interval indicated in the graph, then a second −10 mV depolarization applied to determine the fraction of channls recovered. This protocol was applied every 13 s (time between each initial −10 mV step).

[9] = individual cells, paired with buffer

In the case of `CC[C@H](C)[C@@H]1NC(=O)[C@H](CCCNC(=N)N)NC(=O)[C@H](Cc2ccccc2)NC(=O)[C@H](CC(C)C)NC(=O)[C@H](CO)NC(=O)[C@@H]2CSSC[C@@H]3NC(=O)[C@H]([C@@H](C)O)NC(=O)[C@H](CSSC[C@H](NC(=O)[C@H](CCCNC(=N)N)NC(=O)[C@@H]4CCCN4C(=O)[C@@H](N)CC(C)C)C(=O)N[C@@H](CC(=O)O)C(=O)N[C@@H](CO)C(=O)N4CCC[C@H]4C(=O)N[C@@H](Cc4ccccc4)C(=O)N2)NC(=O)[C@H](CCCCN)NC(=O)[C@H](CC(=O)O)NC(=O)CNC(=O)[C@H](CSSC[C@@H](C(=O)N[C@H](C(=O)N2CCC[C@H]2C(=O)N[C@@H](CC(=O)O)C(=O)N[C@H](C(=O)O)C(C)C)C(C)C)NC(=O)[C@H](CC(C)C)NC(=O)CNC(=O)[C@H](Cc2ccccc2)NC(=O)[C@H]([C@@H](C)CC)NC(=O)[C@@H]2CCCN2C(=O)[C@H](CC(C)C)NC(=O)[C@@H]2CCCN2C(=O)[C@H](C(C)C)NC3=O)NC(=O)[C@H](CC(C)C)NC(=O)CNC1=O` [ExTxA, excelsatoxin A] (H-LPRCDSPFCSLFRIGLCGDKCTCVPLPIFGLCVPDV-OH; disulfide 4-21, 9-23, 17-32), the “DRG NaV1.8 Δ persistent current (I40 ms/Ipeak)” value (NaV1.8) was 0.050 ± 0.015, the “Difference between means (B - A), wildtype minus Scn9a-/-” value [1] was 279.3 ± 22.82 and the “nocifensive responses in knockout mice” value [1] was “abolished”. For the same molecule, the “cumulative flinches (60 min)” value ([1]; 40 μL, NaV1.7Advill, mean, n = 4) was 40.0 ± 6.5 and 40, the “cumulative flinches (60 min)” value ([1]; NaV1.7Advill (Scn9a-/-), individual animals) was 32 and 43 and 57 and 28 and the “persistent current (I40 ms/Ipeak)” value (hNaV1.2) was -0.01884 and -0.01572 and 0.004985 and 0.03852 and -0.01184 and -0.02181 and 0.005193 and -0.01291 and 0.01563 and -0.00224 and -0.00414. The “persistent current (I40 ms/Ipeak)” value (hNaV1.4; individual cells) was -0.00323 and 0.000561 and 0.001128 and 1.82e-5 and 3.19e-5 and 0.001575 and 0.001393 and -0.00031 and -0.00116, the “Δ persistent current (I40 ms/Ipeak; buffer cf. ExTxA)” value (hNaV1.4; mean) was 7.89E-07 ± 0.0005 and 7.889e-7 and the “persistent current (I40 ms/Ipeak)” value [2] was 0.004557 and -0.00296 and -0.00917 and -0.00017 and -0.00072 and 0.02041. For the same molecule, the “persistent current (I40 ms/Ipeak)” value ([3]; individual cells) was -0.02037 and -0.04756 and 0.0447 and 0.01578 and 0.03746, the “Δ persistent current (I40 ms/Ipeak; buffer cf. ExTxA)” value ([3]; mean) was 0.006 ± 0.0175 and 0.006003 and the “Δ persistent current (I40 ms/Ipeak) in CHO hNaV1.7” value (hNaV1.7/β1) was 0.0001 ± 0.001 and 0.0001365. For the same molecule, the “association with dodecylphosphocholine micelles” value [4] was “associates with dodecylphosphocholine micelles”, the “depolarizing shift in the voltage-dependence of fast inactivation” value (NaV1.7/TMEM233 [5]) was 18.0 mV and the “hyperpolarizing shift in the voltage-dependence of activation” value (NaV1.7/TMEM233 [5]) was 11.6 mV. The V50 of Activation (NaV1.7/TMEM233 [5]; ExTxA 1 µM, NaV1.7/TMEM233, mean ± SEM, n = 7, control -24.31 ± 1.11) was -35.92 ± 1.00 mV, the V50 of Inactivation (NaV1.7/TMEM233 [5]; ExTxA 1 µM, NaV1.7/TMEM233, mean ± SEM, n = 8, control -67.77 ± 1.12) was -49.80 ± 3.20 mV and the “V50 of Activation, mean of differences (B - A)” value (NaV1.7/TMEM233 [5]; ExTxA vs. buffer, paired t test, 7 pairs) was -11.61. The “V50 of Inactivation, mean of differences (B - A)” value (NaV1.7/TMEM233 [5]; ExTxA vs. buffer, paired t test, 8 pairs) was 17.97, the “V50 of Activation” value (NaV1.7/TMEM233 [5]; [9]) was -34.91 and -38.74 and -38.17 and -35.28 and -37.07 and -36.44 and -30.84 and the “V50 of Inactivation” value (NaV1.7/TMEM233 [5]; [9]) was -45.67 and -44.27 and -43.05 and -47.34 and -66.38 and -46.52 and -43.25 and -61.92. For the same molecule, the “Ramp current (0.2 mV/s)” value (NaV1.7/TMEM233 [6]) was -1.952 ± 0.950 nA, the Ramp current (NaV1.7/TMEM233 [6]; NaV1.7-TMEM233 + ExTxA (100 nM), individual cells) was -2.267 and -0.5155 and -0.3095 and -7.0521 and -0.7027 and -0.3607 and -2.095 and -0.6283 and the “currents induced by slow voltage-ramps” value (NaV1.7/TMEM233 [6]; extracellular ExTxA) was “an increase of currents induced by slow voltage-ramps”. The “CHO cells persistent current (I40 ms)” value (hNaV1.7/TMEM233 [7]) was -2.010 ± 0.277 nA, the “Xenopus oocyte persistent current (I40 ms/Ipeak)” value (hNaV1.7/TMEM233 [8]) was 0.727 ± 0.020 and the “Nav:TMEM, 1:1 molar, mean (persistent current)” value (hNaV1.7/TMEM233 [8]; Supplementary Fig 1f, 1 uM, toxin not named, mean of n = 6, Control mean 0.0806, n = 6) was 0.727. For the same molecule, the “Nav:TMEM, 1:1 molar, individual values (persistent current)” value (hNaV1.7/TMEM233 [8]; Supplementary Fig 1f, 1 uM, toxin not named, single replicates) was 0.6869 and 0.7919 and 0.702 and 0.7846 and 0.7038 and 0.6927 and the “Nav:TMEM, 1:1 molar, difference between means (1 uM - Control) ± SEM” value (hNaV1.7/TMEM233 [8]; Supplementary Fig 1f, unpaired t test P <0.0001, 95% CI 0.5949 to 0.6979) was 0.6464 ± 0.0231.

From publication PMC10147923, “Pain-causing stinging nettle toxins target TMEM233 to modulate NaV1.7 function” (Nature Communications, 2023)
